US20110262360A1, “Compositions Comprising Enzyme-Cleavable Phenol-Modified Opioid Prodrugs and Inhibitors Thereof” (priority 2010, published 2011)
“And” between values parts separate entries of the source, which are not always exact repeats. Equal entries are not always repeated. “Also recorded” adds a separate entry of the source. Where two headings read alike, the source gives them in different places.

How the values were obtained:
[1] = Oral administration of Compound PC-1 and SBTI trypsin inhibitor to rats: hydromorphone in blood; conditions: for Cmax of hydromorphone in rat blood: PC-1 20 mg/kg PO
[2] = Oral administration of Compound PC-1 and SBTI in the presence of ovalbumin to rats: hydromorphone in plasma; conditions: for Cmax of hydromorphone in rat plasma: PC-1 20 mg/kg PO; for plasma Tmax of hydromorphone: rats; for Effect on Compound PC-1's ability to release hydromorphone: rats PO, PC-1 20 mg/kg with ovalbumin and/or SBTI
Description: In an effort to understand the role of SBTI, ovalbumin was used as a non-trypsin inhibitor protein control. Albumin from chicken egg white (ovalbumin) (Catalog No. A7641, Grade VII, lyophilized powder, Sigma-Aldrich) was dissolved in saline.

[3] = Oral administration of Compound PC-1 and BBSI inhibitor to rats: hydromorphone in blood; conditions: PC-1 20 mg/kg PO
[4] = molecular target: T1, trypsin from bovine pancreas (Bos taurus, UniProt P00760); test: In vitro trypsin conversion of prodrugs to hydromorphone and inhibition by trypsin inhibitor
T1 sequence (P00760 24-246): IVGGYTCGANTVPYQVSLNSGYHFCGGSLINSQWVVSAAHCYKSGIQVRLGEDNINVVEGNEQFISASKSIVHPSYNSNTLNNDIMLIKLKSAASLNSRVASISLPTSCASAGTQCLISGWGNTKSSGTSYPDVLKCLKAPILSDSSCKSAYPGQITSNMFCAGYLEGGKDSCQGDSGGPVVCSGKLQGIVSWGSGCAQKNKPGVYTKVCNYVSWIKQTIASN
Description: The reactions were conducted at 37° C. for 24 hr. Samples were collected at specified time points, transferred into 0.5% formic acid in acetonitrile to stop trypsin activity and stored at less than −70° C. until analysis by LC-MS/MS.
The results are expressed as half-life of prodrug when exposed to trypsin (i.e., Prodrug trypsin half-life) in hours and rate of formation of HM per unit of trypsin.

[5] = Oral administration of Compound PC-2 and SBTI to rats: hydromorphone in plasma; conditions: for Cmax of hydromorphone in rat plasma: PC-2 20 mg/kg PO
[6] = for Cmax of hydromorphone in rat plasma / Tmax of hydromorphone in rat plasma: PC-3 20 mg/kg PO
[7] = PC-3 20 mg/kg PO
[8] = for Cmax of HM in rat plasma / Tmax of HM in rat plasma: PC-4 20 mg/kg PO
[9] = PC-4 20 mg/kg PO
trypsin = molecular target: T2, trypsin (Bos taurus, UniProt P00760); test: In vitro IC50, modified trypsin assay; format: biochemical
T2 sequence (P00760 24-246): T1 sequence (P00760 24-246)

[10] = No trypsin inhibitor, 0.761 mM prodrug, 37° C., Tris pH 8

Question: What does the source list for `CC(=O)NC(CCCNC(=N)N)C(=O)NCCN(C)C(=O)Oc1ccc2c3c1OC1C(=O)CCC4C(C2)N(C)CCC314` (stereo not drawn) [Compound PC-1, Hydromorphone 3-(N-methyl-N-(2-N′-acetylarginylamino)) ethylcarbamate]?
Answer: Cmax of hydromorphone in rat blood ([1]; SBTI 0 mg/kg): 16.5 ± 5.3 ng/mL; Cmax of hydromorphone in rat blood ([1]; SBTI 10 mg/kg): 8.9 ± 1.8 ng/mL; Cmax of hydromorphone in rat blood ([1]; SBTI 100 mg/kg): 6.0 ± 4.0 ng/mL; Cmax of hydromorphone in rat blood ([1]; SBTI 500 mg/kg): <5 ng/mL; Cmax of hydromorphone in rat blood ([1]; SBTI 1000 mg/kg): <5 ng/mL; Cmax of hydromorphone in rat plasma ([2]; OVA 0 mg/kg, SBTI 0 mg/kg): 13.3 ± 3.7 ng/mL; Cmax of hydromorphone in rat plasma ([2]; OVA 20 mg/kg, SBTI 0 mg/kg): 11.0 ± 5.4 ng/mL; Cmax of hydromorphone in rat plasma ([2]; OVA 100 mg/kg, SBTI 0 mg/kg): 9.7 ± 3.1 ng/mL; Cmax of hydromorphone in rat plasma ([2]; OVA 500 mg/kg, SBTI 0 mg/kg): 11.6 ± 2.5 ng/mL; Cmax of hydromorphone in rat plasma ([2]; OVA 500 mg/kg, SBTI 500 mg/kg): 1.9 ± 0.9 ng/mL; Cmax of hydromorphone in rat plasma ([2]; OVA 1000 mg/kg, SBTI 0 mg/kg): 10.3 ± 3.5 ng/mL; plasma Tmax of hydromorphone ([2]; 20 mg/kg Compound PC-1 alone): 2.3 h; plasma Tmax of hydromorphone ([2]; 20 mg/kg Compound PC-1 with 500 mg/kg OVA and 500 mg/kg SBTI): 8.0 h; Cmax of hydromorphone in rat blood ([3]; BBSI 0 mg/kg, n = 4): 16.5 ± 5.3 ng/mL; Cmax of rat not included in n = 3 analysis ([3]; BBSI 100 mg/kg, individual rat, blood): 43 ng/mL; Cmax of hydromorphone in rat blood ([3]; BBSI 100 mg/kg, n = 3 (3 of the 4 rats)): 10.6 ± 5.9 ng/mL; Cmax of hydromorphone in rat blood ([3]; BBSI 100 mg/kg, n = 4): 18.7 ± 17.0 ng/mL; Cmax range of other rats ([3]; BBSI 100 mg/kg, the 3 other rats, blood): 6.8 to 17 ng/mL; Rate of HM formation, umols/h/umol trypsin Average ± sd [4, 10]: 230 ± 8 umols/h/umol trypsin

Question: For `CN(CCNC(=O)[C@@H](N)CCCNC(=N)N)C(=O)Oc1ccc2c3c1OC1C(=O)CCC4C(C2)N(C)CCC314` (stereo partly drawn) [Compound PC-2, [2-((S)-2-amino-5-guanidino-pentanoylamino)-ethyl]-methyl-carbamic acid hydromorphyl ester], which “Cmax of hydromorphone in rat plasma” value ([5]; SBTI 0 mg/kg) is on record?
Answer: 14.2 ± 2.6 ng/mL

Question: And the “Cmax of hydromorphone in rat plasma” value ([5]; SBTI 500 mg/kg)?
Answer: 7.3 ± 3.5 ng/mL

Question: Which results are given for `CC(=O)N[C@@H](CCCCN)C(=O)NCCN(C)C(=O)Oc1ccc2c3c1OC1C(=O)CCC4C(C2)N(C)CCC314` (stereo partly drawn) [Compound PC-3, (S)-2-Acetylamino-6-amino-hexanoic acid (2-methylamino-ethyl)-amide hydromorphone ester]?
Answer: Cmax of hydromorphone in rat plasma ([6]; SBTI 0 mg/kg): 9.0 ± 3.1 ng/mL; Tmax of hydromorphone in rat plasma ([6]; SBTI 0 mg/kg): 2.3 h; Cmax of hydromorphone in rat plasma ([6]; SBTI 500 mg/kg): 2.3 ± 1.7 ng/mL; Tmax of hydromorphone in rat plasma ([6]; SBTI 500 mg/kg): 7.3 h; Cmax of HM in rat plasma ([7]; Compound 101 0 mg/kg): 9.0 ± 3.1 ng/mL; Tmax of HM in rat plasma ([7]; Compound 101 0 mg/kg): 2.3 h; Cmax of HM in rat plasma ([7]; Compound 101 10 mg/kg): 3.8 ± 2.9 ng/mL; Tmax of HM in rat plasma ([7]; Compound 101 10 mg/kg): 3.5 h

Question: What does the source list for `CCN(CCNC(=O)[C@H](CCCNC(=N)N)NC(C)=O)C(=O)Oc1ccc2c3c1OC1C(=O)CCC4C(C2)N(C)CCC314` (stereo partly drawn) [Compound PC-4, [2-((S)-2-Acetylamino-5-guanidino-pentanoylamino)-ethyl]-ethyl-carbamic acid hydromorphone ester]?
Answer: Cmax of HM in rat plasma ([8]; SBTI 0 mg/kg, n = 7): 7.7 ± 2.3 ng/mL; Tmax of HM in rat plasma ([8]; SBTI 0 mg/kg, n = 7): 2.3 h; Cmax of HM in rat plasma ([8]; SBTI 500 mg/kg, n = 4): 7.5 ± 2.1 ng/mL; Tmax of HM in rat plasma ([8]; SBTI 500 mg/kg, n = 4): 6.5 h; Cmax of HM in rat plasma ([9]; Compound 101 0 mg/kg, n = 7): 7.7 ± 2.3 ng/mL; Tmax of HM in rat plasma ([9]; Compound 101 0 mg/kg, n = 7): 2.3 h; Cmax of HM in rat plasma ([9]; Compound 101 10 mg/kg, n = 4): 4.8 ± 1.4 ng/mL; Tmax of HM in rat plasma ([9]; Compound 101 10 mg/kg, n = 4): 6.0 h; Rate of HM formation, umols/h/umol trypsin Average ± sd [4, 10]: 322 umols/h/umol trypsin and 243 ± 1 umols/h/umol trypsin; Rate of HM formation, umols/h/umol trypsin Average ± sd ([4]; With trypsin inhibitor 3,089 uM Compound 109): 3.27 ± 1.87 umols/h/umol trypsin

Question: Which “Rate of HM formation, umols/h/umol trypsin Average ± sd” value [4, 10] does the source give for `CCN(CCNC(=O)[C@H](CCCCN)NC(=O)CC(=O)O)C(=O)Oc1ccc2c3c1O[C@H]1C(=O)CC[C@H]4[C@@H](C2)N(C)CC[C@]314` [Compound PC-5, [2-((S)-2-malonylamino-4-amino-pentanoylamino)-ethyl]-ethyl-carbamic acid hydromorphone ester] here?
Answer: 106 ± 2 umols/h/umol trypsin

Question: With `CCN(CCNC(=O)C(CCCNC(=N)N)NC(=O)CC(=O)O)C(=O)Oc1ccc2c3c1OC1C(=O)CCC4C(C2)N(C)CCC314` (stereo not drawn) [Compound PC-6, [2-(2-Malonyl-5-guanidino-pentanoylamino)-ethyl]-ethyl-carbamic acid hydromorphone ester] as the molecule, how does the “Rate of HM formation, umols/h/umol trypsin Average ± sd” value [4, 10] read?
Answer: 262 ± 11 umols/h/umol trypsin

B1: SBTI: trypsin inhibitor from Glycine max (soybean) (Catalog No. 93620, ˜10,000 units per mg, Sigma-Aldrich) (protein, UniProt P01070 25-205, looked up)
Trypsin inhibitor A: DFVLDNEGNPLENGGTYYILSDITAFGGIRAAPTGNERCPLTVVQSRNELDKGIGTIISSPYRIRFIAEGHPLSLKFDSFAVIMLCVGIPTEWSVVEDLPEGPAVKIGENKDAMDGWFRLERVSDDEFNNYKLVFCPQQAEDDKCGDIGISIDHDDGTRRLVVSKNKPLVVQFQKLDKESL
Question: With B1 as the molecule, how does the “Effect of SBTI on Compound PC-1's ability to release hydromorphone” value ([1]; rats PO, PC-1 20 mg/kg with 10, 100, 500 or 1000 mg/kg SBTI) read?
Answer: attenuates Compound PC-1's ability to release hydromorphone in a dose-dependent manner that can approach approximately 100% attenuation at higher SBTI concentrations; also recorded: suppresses Cmaxand delays Tmax

Question: And the “Effect on Compound PC-1's ability to release hydromorphone” value [2]?
Answer: suppresses Cmaxand delays Tmax of such hydromorphone in plasma, even in the presence of ovalbumin; also recorded: acting specifically by inhibiting trypsin rather than in a non-specific manner

Question: What about the “Effect of SBTI on Compound PC-2's ability to release hydromorphone” value ([5]; rats PO, PC-2 20 mg/kg with 500 mg/kg SBTI) of the same molecule?
Answer: attenuates Compound PC-2's ability to release hydromorphone, both with respect to suppressing Cmaxand delaying Tmax

Question: What about the “Effect of SBTI on Compound PC-3's ability to release hydromorphone” value ([6]; rats PO, PC-3 20 mg/kg with 500 mg/kg SBTI) of the same molecule?
Answer: attenuates Compound PC-3's ability to release hydromorphone, both with respect to suppressing Cmaxand delaying Tmax

Question: What about the “Effect of SBTI on Compound PC-4's ability to release hydromorphone” value ([8]; rats PO, PC-4 20 mg/kg with 500 mg/kg SBTI) of the same molecule?
Answer: attenuates Compound PC-4's ability to release hydromorphone, at least with respect to delaying Tmax

Question: What about the IC50 (trypsin) of the same molecule?
Answer: 270 nM

B2: ovalbumin: Albumin from chicken egg white, used as a non-trypsin inhibitor protein control (protein, UniProt P01012 2-386, looked up)
Ovalbumin: GSIGAASMEFCFDVFKELKVHHANENIFYCPIAIMSALAMVYLGAKDSTRTQINKVVRFDKLPGFGDSIEAQCGTSVNVHSSLRDILNQITKPNDVYSFSLASRLYAEERYPILPEYLQCVKELYRGGLEPINFQTAADQARELINSWVESQTNGIIRNVLQPSSVDSQTAMVLVNAIVFKGLWEKAFKDEDTQAMPFRVTEQESKPVQMMYQIGLFRVASMASEKMKILELPFASGTMSMLVLLPDEVSGLEQLESIINFEKLTEWTSSNVMEERKIKVYLPRMKMEEKYNLTSVLMAMGITDVFSSSANLSGISSAESLKISQAVHAAHAEINEAGREVVGSAEAGVDAASVSEEFRADHPFLFCIKHIATNAVLFFGRCVSP
Question: For B2, which “Effect on Compound PC-1's ability to release hydromorphone” value [2] is on record?
Answer: does not significantly affect Compound PC-1's ability to release hydromorphone
